Laboratory results reported in patent US10766914B2, “DNA alkylating agents” (OBI PHARMA, INC., priority 2015, dated 2020).

What was measured:
H460 cells = assay: Proliferation assay in H460 cells (2 hr exposure, AlamarBlue); format: cell-based, human; details: Homo sapiens, NCI-H460, 2 hrs exposure, wash, 70 hrs growth, read-out: IC 50 in proliferation assay in H460 cells
Description: In vitro proliferation data on the H460 […] human tumor cell line is reported above in the compound table.
Specifically, exponentially growing cells were seeded at a density of 4×10^3 cells per well in a 96 well plate and incubated at 37° C. in 5% CO2, 95% air and 100% relative humidity for 24 hours prior to addition of test compounds. Compounds were solubilized in 100% DMSO at 200 times the desired final test concentration. At the time of drug addition, compounds were further diluted to 4 times the desired final concentration with complete medium. Aliquots of 50 μl of compound at specified concentrations were added to microtiter wells already containing 150 μl of medium, resulting in the final drug concentration reported. After drug addition, the plates were incubated for an additional 2 hours at 37° C., 5% CO2, 95% air, and 100% relative humidity, then the drug was washed off and fresh medium was added and the plates were incubated for addition 70 hrs at 37° C., 5% CO2, 95% air and 100% relative humidity. At the end of this incubation, the viable cells were quantified using the AlamarBlue assay. The drug concentration resulting in growth inhibition of 50% (IC50) was calculated using Prism software (Irvine, Calif.), and the results were listed in the table.

A549 NSCLC xenograft = assay: Example 4-D antitumor efficacy, ectopic A549 NSCLC xenograft model; format: in vivo, female nude mice (nu/nu)
Excerpt: (§1) Specific pathogen-free homozygous female nude mice (nu/nu, Charles River Laboratories) were used. Mice were given food and water ad libitum and housed in microisolator cages. Four to six week old animals were identified by microchips (Locus Technology, Manchester, Md., USA) at the time of the experiments. All animal studies were approved by the Institutional Animal Care and Use Committee at Threshold Pharmaceuticals, Inc.
(§2) All cell lines were from the American Type Culture Collection (ATCC, Rockville, Md., USA).
(§3) Cells were mixed with Matrigel (50% with exception for 30% in the H460) and 0.2 ml per mouse were subcutaneously implanted to the flank area of the animals. When tumor size reached 100-150 250 mm3, mice were randomized into experimental or vehicle groups with 10 mice/group and treatment was started (Day 1). The tested compounds were formulated in 5% DMSO in D5W. The regimens employed in the examples include IP, QD×5/wk (5 days on, 2 days off) as one cycle, for a total of 2 cycles; IP, once; IP, weekly for total 3 weeks; and IV, weekly for 3 weeks. Tumor growth and body weight were measured twice a week. Tumor volume was calculated as (length×width2)/2. Drug efficacy was assessed as Tumor Growth Inhibition (TGI) and Tumor Growth Delay (TGD). TGI was defined as (1−ΔT/ΔC)×100, where ΔT/ΔC presented the ratio of the change in mean (or median, if variation within the group was relatively large) tumor volume of the treated group and of the control group. TGD was calculated as the extra days for the treated tumor to reach 500 mm3 or 1000 mm3 as compared to the control group. Animals were culled when individual tumor size reached over 2000 mm3 or mean tumor volume exceeded 1000 mm3 in the group. Data are expressed as the mean±SEM. One-way analysis of variance with Dunnett post comparison test (GraphPad Prism 4) or two-tailed student's t-test were used for analysis. A P level <0.05 was considered statistically significant.
(§4) The compounds were tested in another A549 model. The compounds were dosed as follows. Daily IP dosing: 5 doses then 2 days off then 5 more doses starting at 100 mm^3 tumors on day 1 (10 animals per group average tumor volume). The antitumor effects and the safety of administration are graphically illustrated below.

[1] = Example 4-D body weight change and lethal toxicity, A549 xenograft study; format: in vivo, female nude mice (nu/nu); details: for Lethal Tox: 10 animals per group
Description: as §3, §4

AKR1C3 = target: T1, AKR1C3 (Homo sapiens, UniProt P42330); assay: Activation by the aldoketo reductase AKR1C3 (% remaining, LC/MS/MS); format: biochemical; details: for % Remaining: 5 μM, 25 μg/mL AKR1C3, 2 mM NADPH, 37° C.
T1 sequence (P42330 1-323): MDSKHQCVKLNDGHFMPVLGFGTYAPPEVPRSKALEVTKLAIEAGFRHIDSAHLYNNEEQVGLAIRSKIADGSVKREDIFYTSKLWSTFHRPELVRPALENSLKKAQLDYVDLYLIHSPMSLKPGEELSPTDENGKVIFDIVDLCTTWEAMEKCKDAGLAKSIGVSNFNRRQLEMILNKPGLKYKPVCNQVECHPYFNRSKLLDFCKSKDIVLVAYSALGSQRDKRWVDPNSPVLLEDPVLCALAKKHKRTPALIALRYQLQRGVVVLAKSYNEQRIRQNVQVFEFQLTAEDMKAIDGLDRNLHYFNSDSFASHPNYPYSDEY
Description: Recombinant human AKR1C3 was diluted to 25 μg/mL in phosphate buffered saline (PBS), pH 7.4 (37° C.), containing 2 mM NADPH. TH2870 or progesterone (positive control) in 30% methanol/70% water was added to the reaction mixture at a final concentration of 5 μM and incubated at 37° C. for 120 minutes. At various times up to 120 min, 50 μL of the reaction mixture was taken and 200 μL acetonitrile containing propranolol as internal standard was added, vortex-mixed and centrifuged for 10 min. The resulting supernatant (5 μL) was injected into a LC/MS/MS for quantitation of % remaining TH2870 and progesterone. The compounds were tested in duplicate.

[2] = tested on: A 549 non-small cell lung xenograft; assay: Example 4-B antitumor efficacy, ectopic A549 NSCLC xenograft model; format: in vivo, female nude mice (nu/nu)
Excerpt: as §1, §2, §3
The dosing was as follows. Daily IP dosing: 5 doses then 2 days off then 5 more doses starting at 110 mm^3 tumors on day 1 (10 animals per group average tumor volume).
Doses were selected by first doing a toxicity test in CD1 mice as described above. The compounds were tested against Thio-tepa.

[3] = Example 4-C body weight change, A375 xenograft study; format: in vivo, female nude mice (nu/nu); details: 2.5 mpk, qd × 5 × 2, ip
Description: as §3
his study employed an A375 melanoma human tumor xenograft model and various compounds provided herein were compared to thiotepa and the approved anti melanoma drug, nab-Paclitaxel. The antitumor effects and the safety of administration are graphically illustrated below.

[4] = Example 4-B body weight change, A549 xenograft study; format: in vivo, female nude mice (nu/nu)
Description: as §3
Antitumor effects of compounds provided herein were determined on A 549 non-small cell lung xenograft model in comparison with a chemotherapy agent, thiotepa. The dosing was as follows. Daily IP dosing: 5 doses then 2 days off then 5 more doses starting at 110 mm^3 tumors on day 1 (10 animals per group average tumor volume). The antitumor effects and the safety of administration are graphically illustrated below.

[5] = tested on: A375 melanoma human tumor xenograft; assay: Example 4-C antitumor efficacy, ectopic A375 melanoma xenograft model; format: in vivo, female nude mice (nu/nu); details: qd × 5 × 2, ip
Excerpt: as §1, §2, §3
his study employed an A375 melanoma human tumor xenograft model and various compounds provided herein were compared to thiotepa and the approved anti melanoma drug, nab-Paclitaxel.

[6] = 1.25 mg/kg ip QD × 5/wk × 2 wks

**Q.** With CS(=O)(=O)c1ccc(Oc2cc(COP(=O)(N3CC3)N3CC3)ccc2[N+](=O)[O-])cc1 [Compound 2911] as the molecule, how does the IC50 (H460 cells) read?
**A.** The IC50 was 8 nM.

**Q.** And the “TGD 500” value (A549 NSCLC xenograft; 10 mg/kg IP QD × 5/wk × 2 wks)?
**A.** The value was 63 days.

**Q.** What about the TGI (A549 NSCLC xenograft; 10 mg/kg IP QD × 5/wk × 2 wks) of the same molecule?
**A.** Its TGI is 88.7%.

**Q.** And the “Max. BW loss %” value ([1]; 10 mg/kg IP QD × 5/wk × 2 wks)?
**A.** Its value is 11.1%.

**Q.** What about the “Lethal Tox” value ([1]; 10 mg/kg IP QD × 5/wk × 2 wks) of the same molecule?
**A.** The value was 0.

**Q.** What does the source list for CC(OP(=O)(N1CC1)N1CC1)c1ccc([N+](=O)[O-])c(Oc2ccc3ncccc3c2)c1 (stereo not shown) [Compound 2952]?
**A.** IC50 (H460 cells): 3 nM; TGD 500 (A549 NSCLC xenograft; 20 mg/kg IP QD × 5/wk × 2 wks): 70 days; TGI (A549 NSCLC xenograft; 20 mg/kg IP QD × 5/wk × 2 wks): 91.8%; Max. BW loss % ([1]; 20 mg/kg IP QD × 5/wk × 2 wks): 1.2%; Lethal Tox ([1]; 20 mg/kg IP QD × 5/wk × 2 wks): 1

**Q.** What does the source list for CC(OP(=O)(N1CC1)N1CC1)c1ccc([N+](=O)[O-])c(Oc2ccc3ccccc3c2)c1 (stereo not shown) [Compound 2955]?
**A.** IC50 (H460 cells): 6 nM; TGD 500 (A549 NSCLC xenograft; 40 mg/kg IP QD × 5/wk × 2 wks): 47 days; TGI (A549 NSCLC xenograft; 40 mg/kg IP QD × 5/wk × 2 wks): 78.9%; Max. BW loss % ([1]; 40 mg/kg IP QD × 5/wk × 2 wks): 0.6%; Lethal Tox ([1]; 40 mg/kg IP QD × 5/wk × 2 wks): 1

**Q.** With O=[N+]([O-])c1ccc(COP(=O)(N2CC2)N2CC2)cc1Oc1ccc(-c2ccccc2)cc1 [Compound 2958] as the molecule, how does the IC50 (H460 cells) read?
**A.** Its IC50 is 2 nM.

**Q.** And the “TGD 500” value (A549 NSCLC xenograft; 5 mg/kg IP QD × 5/wk × 2 wks)?
**A.** Its value is 44 days.

**Q.** And the TGI (A549 NSCLC xenograft; 5 mg/kg IP QD × 5/wk × 2 wks)?
**A.** Its TGI is 77.9%.

**Q.** And the “Max. BW loss %” value ([1]; 5 mg/kg IP QD × 5/wk × 2 wks)?
**A.** The value was 2.1%.

**Q.** What about the “Lethal Tox” value ([1]; 5 mg/kg IP QD × 5/wk × 2 wks) of the same molecule?
**A.** The value was 0.

**Q.** Which results are given for CC(=O)[C@H]1CC[C@H]2[C@@H]3CCC4=CC(=O)CC[C@]4(C)[C@H]3CC[C@]12C [Progesterone, progesterone, reference compound]?
**A.** % Remaining (AKR1C3; 0 min): 100%; % Remaining (AKR1C3; 15 min): 70.8%; % Remaining (AKR1C3; 30 min): 49.2%; % Remaining (AKR1C3; 60 min): 20.1%; % Remaining (AKR1C3; 90 min): 10.6%; % Remaining (AKR1C3; 120 min): 6.40%; disappearance in the presence of AKR1C3 (AKR1C3; in words): reduced slowly

**Q.** For S=P(N1CC1)(N1CC1)N1CC1 [Thio-TEPA, thiotepa, reference compound], which “TGD 500” value [2, 6] is on record?
**A.** Its value is 17 days.

**Q.** What about the TGI [2, 6] of the same molecule?
**A.** Its TGI is 56.1%.

**Q.** What about the “TGD 500” value ([2]; 2.5 mg/kg ip QD × 5/wk × 2 wks) of the same molecule?
**A.** Its value is 26 days.

**Q.** What about the TGI ([2]; 2.5 mg/kg ip QD × 5/wk × 2 wks) of the same molecule?
**A.** Its TGI is 68.3%.

**Q.** And the “Max. BW loss %” value [3]?
**A.** Its value is 0%.

**Q.** And the “Max. BW loss %” value [4, 6]?
**A.** The value was 0.0%.

**Q.** What about the “Max. BW loss %” value ([4]; 2.5 mg/kg ip QD × 5/wk × 2 wks) of the same molecule?
**A.** The value was 0.4%.

**Q.** What about the “TGD 500” value ([5]; 2.5 mpk) of the same molecule?
**A.** The value was 3 days.

**Q.** And the “TGD 1000” value ([5]; 2.5 mpk)?
**A.** Its value is 2 days.

**Q.** What about the inhibition in vivo at 2.5 mg/kg ([5]; Mus musculus, A-375, 2.5 mpk, read-out: TGI) of the same molecule?
**A.** Its inhibition in vivo at 2.5 mg/kg is 16.6%.
